Experimental data: the supplement of paper PMC12137928
Where a name gives a salt, the structure may show the parent alone.

Legend:
HCT116 [1] = conditions: 72 h
Method in brief: (§1)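 HCT116 cells were seeded at 250 per well in 1536-well plates with 5 h allowed for attachment. CellTiter-Glo luminescence was normalized against vehicle (0%) and positive control (-100%) before pattern correction. The IC50 and maximal efficacy figures derive from four-parameter Hill fits.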

HCT116 [2] = test: efficacy (maximum % inhibition of viability vs DMSO); higher = more cytotoxic; conditions: 72 h
Method in brief: as §1

SMILES | IC50 cell viability (HCT116 [1]; ICRF193 0 nM) | IC50 cell viability (HCT116 [1]; ICRF193 200 nM) | efficacy (HCT116 [2]; ICRF193 0 nM) | efficacy (HCT116 [2]; ICRF193 200 nM)
CCO/N=C(\C(=O)N[C@@H]1C(=O)N2C(C(=O)[O-])=C(Sc3nc(-c4cc[n+](C)cc4)cs3)CS[C@H]12)c1nsc(NP(=O)(O)O)n1 [TAK-599] | 25.9 µM | 29.1 µM | 57.6% | 76.4%
O=C1NCCN1CCN1CCC(c2cn(-c3ccc(F)cc3)c3ccc(Cl)cc23)CC1 [Sertindole] | 16.4 µM | 23.1 µM | 105% | 117%
CN(C/C=C/c1ccccc1)Cc1cccc2ccccc12 [Naftifine hydrochloride] | 32.6 µM | 29.1 µM | 49.9% | 54%
C[C@H]1c2cccc(O)c2C(=O)C2=C(O)[C@]3(O)C(=O)C(C(N)=O)=C(O)[C@@H](N(C)C)[C@@H]3[C@@H](O)[C@@H]21 [Doxycycline] | 16.4 µM | 23.1 µM | 41.6% | 62.7%
Clc1ccc(CSC(Cn2ccnc2)c2ccc(Cl)cc2Cl)cc1 (centres undefined) [Sulconazole nitrate] | 29.1 µM | 18.3 µM | 89.6% | 76.4%
CC(C)OC(=O)CCC/C=C\C[C@@H]1[C@@H](/C=C/[C@@H](O)COc2cccc(C(F)(F)F)c2)[C@H](O)C[C@@H]1O [Travoprost] | 14.6 µM | 20.6 µM | 87.4% | 96.5%
COC(=O)C1=C(C)NC(COC(N)=O)=C(C(=O)OC(C)C)C1c1cccc(Cl)c1Cl (centres undefined) [Lemildipine] | 23.1 µM | 25.9 µM | 76.8% | 76.7%
CC[C@H](c1ccc(O)cc1)[C@@H](CC)c1ccc(O)cc1 [Hexestrol] | 16.4 µM | 20.6 µM | 69.4% | 64.6%
CC(CCc1ccccc1)NC(C)C(O)c1ccc(O)cc1 (centres undefined) [Nylidrin] | > 45.8 µM | 16.4 µM | – | 40.7%
CCCCC1(COC(=O)CCC(=O)O)C(=O)N(c2ccccc2)N(c2ccccc2)C1=O [Suxibuzone] | > 45.8 µM | 25.9 µM | – | 58.2%
O=C(CCCCCCC(=O)Nc1ccccc1)NO [Vorinostat (SAHA)] | 3.66 µM | 2.31 µM | 109% | 101%
CC(CCc1ccc(O)cc1)NCCc1ccc(O)c(O)c1 (centres undefined) [Dobutamine] | > 45.8 µM | 23.1 µM | – | 83.3%
CN1C[C@H](C(=O)N[C@]2(C)O[C@@]3(O)[C@@H]4CCCN4C(=O)[C@H](Cc4ccccc4)N3C2=O)C=C2c3cccc4[nH]cc(c34)C[C@H]21 [Ergotamine tartrate] | > 45.8 µM | 18.3 µM | – | 70.8%
OC[C@H]1O[C@@H](n2cnc3c(S)ncnc32)[C@H](O)[C@@H]1O [Thioinosine] | 3.26 µM | 3.66 µM | 95.1% | 93.2%
COc1cc([C@@H]2c3cc4c(cc3[C@@H](O[C@@H]3O[C@@H]5CO[C@@H](C)O[C@H]5[C@H](O)[C@H]3O)[C@H]3COC(=O)[C@H]23)OCO4)cc(OC)c1OP(=O)(O)O [Etoposide  Phosphate] | 0.517 µM | 0.366 µM | 60.8% | 79.9%
OCCN1CCN(CC/C=C2/c3ccccc3Sc3ccc(C(F)(F)F)cc32)CC1 [cis-Flupentixol] | 25.9 µM | 16.4 µM | 119% | 102%
C=C1CC[C@H](O)C/C1=C/C=C1\CCC[C@]2(C)[C@@H]([C@H](C)CCCC(C)C)CC[C@@H]12 [CHOLECALCIFEROL] | 23.1 µM | 23.1 µM | 87.9% | 79.4%
OC(c1cc(C(F)(F)F)nc2c(C(F)(F)F)cccc12)C1CCCCN1 (centres undefined) [Mefloquine hydrochloride] | 23.1 µM | 23.1 µM | 116% | 98%
CN(C)CCOc1ccc(/C(=C(/CCCl)c2ccccc2)c2ccccc2)cc1 [Toremifene citrate] | 20.6 µM | 29.1 µM | 128% | 104%
CCCCCCCCCCCCCCCC[N+](C)(C)CCN(Cc1ccc(OC)cc1)c1ncccn1 [Thonzonium bromide] | 18.3 µM | 4.61 µM | 120% | 89.7%
CN(C)CCCN1c2ccccc2Sc2ccccc21 [Promazine hydrochloride] | > 45.8 µM | 20.6 µM | – | 46.3%
O=c1[nH]c2ccccc2n1CCCN1CCN(C(c2ccccc2)c2ccccc2)CC1 [Oxatomide] | 18.3 µM | 29.1 µM | 73.2% | 84.5%
C#C[C@]1(O)CC[C@H]2[C@@H]3CCc4cc(O)ccc4[C@H]3CC[C@@]21C [Ethinylestradiol] | > 45.8 µM | 20.6 µM | – | 41.1%
Cc1c(C(=O)Nc2ccc(N3C[C@@H](C)O[C@@H](C)C3)nc2)cccc1-c1ccc(OC(F)(F)F)cc1 [Sonidegib] | 10.3 µM | 13 µM | 42.7% | 60.5%
CN(C(=O)CN(CCO)CC(=O)N(C)C(C)(C)Cc1ccccc1)C(C)(C)Cc1ccccc1 [Oxethazaine] | 16.4 µM | 13 µM | 104% | 97.5%
CCC[C@H](NC(=O)[C@@H]1[C@H]2CCC[C@H]2CN1C(=O)[C@@H](NC(=O)[C@@H](NC(=O)c1cnccn1)C1CCCCC1)C(C)(C)C)C(=O)C(=O)NC1CC1 [Telaprevir (VX-950)] | 20.6 µM | 29.1 µM | 80.7% | 74.5%

SMILES | IC50 cell viability (HCT116 [1]; ICRF193 0 nM) | IC50 cell viability (HCT116 [1]; ICRF193 200 nM) | efficacy (HCT116 [2]; ICRF193 0 nM) | efficacy (HCT116 [2]; ICRF193 200 nM)
CN(C)[C@@H]1C(O)=C(C(N)=O)C(=O)[C@@]2(O)C(O)=C3C(=O)c4c(O)ccc(Cl)c4[C@@H](O)[C@H]3C[C@@H]12 [Demeclocycline hydrochloride] | > 45.8 µM | 16.4 µM | – | 40%
CCCCCC(=O)O[C@]1(C(C)=O)CC[C@H]2[C@@H]3CCC4=CC(=O)CC[C@]4(C)[C@H]3CC[C@@]21C [Hydroxyprogesterone caproate] | > 45.8 µM | 16.4 µM | – | 56.4%
C#C[C@]1(OC(C)=O)CC[C@H]2[C@@H]3CCC4=CC(=NO)CC[C@@H]4[C@H]3CC[C@@]21CC (mixture of isomers) [Norgestimate] | 18.3 µM | 29.1 µM | 84% | 102%
CCCSc1nc(N[C@@H]2C[C@H]2c2ccc(F)c(F)c2)c2nnn([C@@H]3C[C@H](OCCO)[C@@H](O)[C@H]3O)c2n1 [Ticagrelor] | 29.1 µM | 18.3 µM | 77.1% | 92.6%
CC(=O)[O][Hg][c]1ccccc1 [Phenylmercuric acetate] | 4.61 µM | 5.17 µM | 106% | 97.9%
O[C@@H](CNC[C@H](O)[C@H]1CCc2cc(F)ccc2O1)[C@@H]1CCc2cc(F)ccc2O1 (racemic) [rac Nebivolol hydrochloride] | 29.1 µM | 20.6 µM | 121% | 98.2%
O=C(O)c1ccc(-n2nc(-c3ccccc3O)nc2-c2ccccc2O)cc1 [Deferasirox] | 18.3 µM | 29.1 µM | 99.7% | 109%
COc1cc(C(C)=O)ccc1OCCCN1CCC(c2noc3cc(F)ccc23)CC1 [Iloperidone] | > 45.8 µM | 23.1 µM | – | 49.6%
CC(=O)Oc1ccc(C2(c3ccc(OC(C)=O)cc3)Oc3ccccc3NC2=O)cc1 [Bisoxatin acetate] | 14.6 µM | 20.6 µM | 66.7% | 89%
C/C(O)=C(\C#N)C(=O)Nc1ccc(C(F)(F)F)cc1 [Teriflunomide] | 13 µM | 11.6 µM | 51.8% | 46.2%
CC[C@H]1OC(=O)[C@H](C)[C@@H](O[C@H]2C[C@@](C)(OC)[C@@H](O)[C@H](C)O2)[C@H](C)[C@@H](O[C@@H]2O[C@H](C)C[C@H](N(C)C)[C@H]2O)[C@](C)(O)C[C@@H](C)CN(C)[C@H](C)[C@@H](O)[C@]1(C)O [Azithromycin] | > 45.8 µM | 20.6 µM | – | 68.7%
CCCCCCNC(=O)n1cc(F)c(=O)[nH]c1=O [Carmofur] | 10.3 µM | 8.2 µM | 87.1% | 92%
OCCN1CCN(CCCN2c3ccccc3Sc3ccc(Cl)cc32)CC1 [Perphenazine] | 23.1 µM | 23.1 µM | 108% | 115%
O=[N+]([O-])c1c(Cl)cccc1-c1c[nH]cc1Cl [Pyrrolnitrin] | 14.6 µM | 18.3 µM | 54.1% | 55.5%
CCCOc1ccc2[nH]c(NC(=O)OC)nc2c1 [Oxibendazole] | 1.3 µM | 0.183 µM | 43% | 40.1%
Nc1ccc2cc3ccc(N)cc3nc2c1 [Proflavin hemisulfate] | 20.6 µM | 29.1 µM | 95.1% | 93.6%
CC[C@@]1(O)C(=O)OCc2c1cc1n(c2=O)Cc2c-1nc1ccccc1c2/C=N/OC(C)(C)C [Gimatecan] | 0.183 µM | > 45.8 µM | 48.8% | –
COC(=O)c1ccc2c(c1)NC(=O)/C2=C(\Nc1ccc(N(C)C(=O)CN2CCN(C)CC2)cc1)c1ccccc1 [Nintedanib] | > 45.8 µM | 10.3 µM | – | 53.6%
CN1CCN(CCCN2c3ccccc3Sc3ccccc32)CC1 [Perazine] | 31.6 µM | 35.5 µM | 86.5% | 95.2%
Cc1cc(C2=NOC(c3cc(Cl)cc(Cl)c3)(C(F)(F)F)C2)ccc1C(=O)NCC(=O)NCC(F)(F)F (centres undefined) [Fluralaner] | 18.3 µM | 29.1 µM | 96.5% | 104%
Clc1ccc(CO/N=C(\Cn2ccnc2)c2ccc(Cl)cc2Cl)c(Cl)c1 [Oxiconazole nitrate] | 29.1 µM | 20.6 µM | 104% | 101%
CS(=O)(=O)CCNCc1ccc(-c2ccc3ncnc(Nc4ccc(OCc5cccc(F)c5)c(Cl)c4)c3c2)o1 [Lapatinib] | 16.4 µM | 20.6 µM | 106% | 110%
CC(C)c1cc2c(cc1S(=O)(=O)O)[C@@]1(C)CCC[C@@](C)(C(=O)O)[C@@H]1CC2 [Ecabet] | > 45.8 µM | 0.103 µM | – | 63.3%
CC[C@@]1(O)C[C@H](O[C@H]2C[C@H](N(C)C)[C@H](O[C@H]3C[C@H](O)[C@H](O[C@H]4CCC(=O)[C@H](C)O4)[C@H](C)O3)[C@H](C)O2)c2c(cc3c(c2O)C(=O)c2c(O)cccc2C3=O)[C@H]1C(=O)OC [Aclarubicin] | 23.1 µM | 9.2 µM | 122% | 112%
CN(Cc1cnc2nc(N)nc(N)c2n1)c1ccc(C(=O)N[C@@H](CCC(=O)O)C(=O)O)cc1 [Methotrexate] | 0.146 µM | 0.146 µM | 91.8% | 93.9%
O=C(O)c1cccc(-c2noc(-c3ccccc3F)n2)c1 [PTC-124] | > 45.8 µM | 10.3 µM | – | 46.5%
